Experimental data reported in BindingDB's records for doi:10.1016/s0960-894x(98)00576-9 (Research Triangle Institute, 1999).

Experiment: Compound was tested for the inhibition of [35S]GTP-gamma-S, binding in Guinea pig Caudate stimulated by the Opioid receptor delta 1 agonist Delta-SNC80

Compound	Ki [µM]
CN1CC[C@]2(c3cccc(O)c3)Cc3ccccc3C[C@]2(C)C1 [3-((4aS,10aS)-2,10a-Dimethyl-1,3,4,5,10,10a-hexahydro-2H-benzo[g]isoquinolin-4a-yl)-phenol]	0.222
C[C@]12Cc3ccccc3C[C@@]1(c1cccc(O)c1)CCN(CCc1ccccc1)C2 [3-((4aS,10aS)-10a-Methyl-2-phenethyl-1,3,4,5,10,10a-hexahydro-2H-benzo[g]isoquinolin-4a-yl)-phenol]	0.184
